Measured values taken from ChEMBL document CHEMBL5113478, “7-Azaindole, 2,7-diazaindole, and 1H-pyrazole as core structures for novel anticancer agents with potential chemosensitizing properties” (Eur J Med Chem, 2022).
The source made the active and inactive calls. The calls are words filed in the database; no cut-off is given here.

Assays:
[1] = system: MCF7; assay: Antiproliferative activity against human MCF7 cells assessed as […] cell proliferation at 10 uM incubated for 48 hrs in presence of 10 uM of CDDP by WST-1 assay relative to control; type: functional
[2] = system: HT-29; assay: Antiproliferative activity against human HT-29 cells assessed as […] cell proliferation at 10 uM incubated for 48 hrs by WST-1 assay relative to control; type: functional
[3] = system: PANC-1; assay: Antiproliferative activity against human PANC-1 cells assessed as […] cell proliferation at 10 uM incubated for 48 hrs by WST-1 assay relative to control; type: functional
[4] = system: GBM; assay: Cytotoxicity against patient-derived human GBM cells assessed as reduction in cell viability at 15 uM incubated for 48 hrs by MTT assay; type: functional
[5] = system: A549; assay: Antiproliferative activity against human A549 cells assessed as […] cell proliferation at 10 uM incubated for 48 hrs in presence of 15 uM of CDDP by WST-1 assay relative to control; type: functional
[6] = system: A2780; assay: Antiproliferative activity against human A2780 cells assessed as […] cell proliferation at 10 uM incubated for 48 hrs by WST-1 assay relative to control; type: functional
[7] = system: MCF7; assay: Antiproliferative activity against human MCF7 cells assessed as […] cell proliferation at 10 uM incubated for 48 hrs by WST-1 assay relative to control; type: functional
[8] = system: A549; assay: Antiproliferative activity against human A549 cells assessed as […] cell proliferation at 10 uM incubated for 48 hrs by WST-1 assay relative to control; type: functional
[9] = system: PANC-1; assay: Antiproliferative activity against human PANC-1 cells assessed as […] cell proliferation at 10 uM incubated for 48 hrs in presence of 15 uM of CDDP by WST-1 assay relative to control; type: functional
[10] = system: A2780; assay: Antiproliferative activity against human A2780 cells assessed as […] cell proliferation at 10 uM incubated for 48 hrs in presence of 2 uM of CDDP by WST-1 assay relative to control; type: functional
[11] = system: MOLT-4; assay: Antiproliferative activity against human MOLT-4 cells assessed as […] cell proliferation at 10 uM incubated for 48 hrs by WST-1 assay relative to control; type: functional
[12] = system: Jurkat; assay: Antiproliferative activity against human Jurkat cells assessed as […] cell proliferation at 10 uM incubated for 48 hrs by WST-1 assay relative to control; type: functional
[13] = system: HT-29; assay: Antiproliferative activity against human HT-29 cells assessed as […] cell proliferation at 10 uM incubated for 48 hrs in presence of 15 uM of CDDP by WST-1 assay relative to control; type: functional
[14] = system: Jurkat; assay: Antiproliferative activity against human Jurkat cells assessed as […] cell proliferation at 10 uM incubated for 48 hrs in presence of 2 uM of CDDP by WST-1 assay relative to control; type: functional
[15] = system: MOLT-4; assay: Antiproliferative activity against human MOLT-4 cells assessed as […] cell proliferation at 10 uM incubated for 48 hrs in presence of 2 uM of CDDP by WST-1 assay relative to control; type: functional
[16] = system: HeLa; assay: Antiproliferative activity against human HeLa cells assessed as […] cell proliferation at 10 uM incubated for 48 hrs in presence of 15 uM of CDDP by WST-1 assay relative to control; type: functional
[17] = system: SAOS-2; assay: Antiproliferative activity against human SAOS-2 cells assessed as […] cell proliferation at 10 uM incubated for 48 hrs in presence of 15 uM of CDDP by WST-1 assay relative to control; type: functional
[18] = system: 1321N1; assay: Cytotoxicity against human 1321N1 cells assessed as reduction in cell viability at 15 uM incubated for 48 hrs by MTT assay; type: functional, cell-based
[19] = system: HeLa; assay: Antiproliferative activity against human HeLa cells assessed as […] cell proliferation at 10 uM incubated for 48 hrs by WST-1 assay relative to control; type: functional
[20] = system: SAOS-2; assay: Antiproliferative activity against human SAOS-2 cells assessed as […] cell proliferation at 10 uM incubated for 48 hrs by WST-1 assay relative to control; type: functional
[21] = system: 1321N1; assay: Chemo-sensitizing activity against human 1321N1 cells at 15 uM incubated for 48 hrs in presence of TMZ by MTT assay; type: functional, cell-based

| SMILES | Activity [1] [%] | Cell viability relative to control [2] [%] | Activity [3] [%] | Activity [5] [%] | Activity [6] [%] | Activity [7] [%] | Activity [8] [%] | Activity [9] [%] | Activity [10] [%] | Activity [11] [%] | Activity [12] [%] | Activity [13] [%] | Activity [14] [%] | Activity [15] [%] | Activity [16] [%] | Activity [17] [%] | Activity [19] [%] | Activity [20] [%] | also measured |
| --- | --- | --- | --- | --- | --- | --- | --- | --- | --- | --- | --- | --- | --- | --- | --- | --- | --- | --- | --- |
| CCN(CC)c1ccc(CNC(=O)c2c[nH]c3ncc(-c4ccc(S(=O)(=O)C(C)C)cc4)cc23)cc1 | 58 | 64 | 64 | 58 | 64 | 64 | 64 | 58 | 58 | 64 | 64 | 58 | 58 | 58 | 58 | 58 | 64 | 64 | Activity [4]: Active; Activity [18]: Active |
| CC(C)S(=O)(=O)c1ccc(-c2cnc3[nH]c(C(=O)N4CCc5ccccc5C4)cc3c2)cc1 | 57 | 71 | 71 | 57 | 71 | 71 | 71 | 57 | 57 | 71 | 71 | 57 | 57 | 57 | 57 | 57 | 71 | 71 | Activity [4]: 50%; Activity [18]: Active; Activity [21]: Active |
| CC(C)S(=O)(=O)c1ccc(-c2cc(C(=O)N3CCc4ccccc4C3)n[nH]2)cc1 | 57 | 82 | 82 | 57 | 82 | 82 | 82 | 57 | 57 | 82 | 82 | 57 | 57 | 57 | 57 | 57 | 82 | 82 | Activity [4]: 50%; Activity [18]: Active; Activity [21]: Active |
| CC(C)S(=O)(=O)c1ccc(-c2cc(C(=O)NCc3ccccc3)n[nH]2)cc1 | 68 | 98 | 98 | 68 | 98 | 98 | 98 | 68 | 68 | 98 | 98 | 68 | 68 | 68 | 68 | 68 | 98 | 98 |  |
| CCN1CCN(Cc2c[nH]c3ncc(-c4ccc(S(=O)(=O)C(C)C)cc4)cc23)CC1 | 65 | 97 | 97 | 65 | 97 | 97 | 97 | 65 | 65 | 97 | 97 | 65 | 65 | 65 | 65 | 65 | 97 | 97 |  |
| CCN1CCN(C(=O)c2cc(-c3ccc(S(C)(=O)=O)cc3)[nH]n2)CC1 | 65 | 102 | 102 | 65 | 102 | 102 | 102 | 65 | 65 | 102 | 102 | 65 | 65 | 65 | 65 | 65 | 102 | 102 |  |
| CC(C)S(=O)(=O)c1ccc(-c2cnc3[nH]cc(C(=O)Nc4ccc(N(C)C)cc4)c3c2)cc1 | 59 | 96 | 96 | 59 | 96 | 96 | 96 | 59 | 59 | 96 | 96 | 59 | 59 | 59 | 59 | 59 | 96 | 96 |  |
| CC(C)S(=O)(=O)c1ccc(-c2cnc3[nH]c(C(=O)NCc4ccccc4)cc3c2)cc1 | 61 | 100 | 100 | 61 | 100 | 100 | 100 | 61 | 61 | 100 | 100 | 61 | 61 | 61 | 61 | 61 | 100 | 100 |  |
| CCN1CCN(C2CCN(C(=O)c3c[nH]c4ncc(-c5ccc(S(=O)(=O)C(C)C)cc5)cc34)CC2)CC1 | 62 | 100 | 100 | 62 | 100 | 100 | 100 | 62 | 62 | 100 | 100 | 62 | 62 | 62 | 62 | 62 | 100 | 100 |  |
| CCN(CC)c1ccc(CNC(=O)c2c[nH]c3ncc(-c4ccc(S(C)(=O)=O)cc4)cc23)cc1 | 59 | 76 | 76 | 59 | 76 | 76 | 76 | 59 | 59 | 76 | 76 | 59 | 59 | 59 | 59 | 59 | 76 | 76 |  |
| CS(=O)(=O)c1ccc(-c2cnc3[nH]cc(C(=O)N4CCC(c5ccccc5)CC4)c3c2)cc1 | 44 | 49 | 49 | 44 | 49 | 49 | 49 | 44 | 44 | 49 | 49 | 44 | 44 | 44 | 44 | 44 | 49 | 49 |  |
